Where “and” joins values, the source holds several entries; their conditions need not be identical. Identical values can stand only once.
Assays:
[1] = for vapor or sublimation pressure: Crystal 1; for Triple point temperature: Adiabatic calorimetry
[2] = Molar enthalpy of transition or fusion; details: Adiabatic calorimetry

NC12CC3CC(CC(C3)C1)C2 [tricyclo(3.3.1.1:3,7)decan-1-amine]
[1]
Details	vapor or sublimation pressure
291.05 K, Calculated from knudsen effusion weight loss	0.00621 kPa
291.07 K, Calculated from knudsen effusion weight loss	0.00627 kPa
291.2 K, Transpiration method	0.00632 kPa
293.54 K, Calculated from knudsen effusion weight loss	0.00757 kPa
293.55 K, Calculated from knudsen effusion weight loss	0.00752 kPa
294.2 K, Transpiration method	0.00832 kPa
297.1 K, Transpiration method	0.0107 kPa
300.1 K, Transpiration method	0.0137 kPa
303.2 K, Transpiration method	0.0186 kPa
305.6 K, Transpiration method	0.0223 kPa
305.94 K, Calculated from knudsen effusion weight loss	0.0211 kPa
305.98 K, Calculated from knudsen effusion weight loss	0.0204 kPa
308.1 K, Transpiration method	0.027 kPa
308.52 K, Calculated from knudsen effusion weight loss	0.0263 kPa
310.4 K, Transpiration method	0.0291 kPa
310.94 K, Calculated from knudsen effusion weight loss	0.0309 kPa and 0.0315 kPa
313.2 K, Transpiration method	0.0396 kPa
318 K, Transpiration method	0.0535 kPa
318.3 K, Transpiration method	0.0549 kPa
323.3 K, Transpiration method	0.0777 kPa
328.1 K, Transpiration method	0.108 kPa
333.4 K, Transpiration method	0.148 kPa and 0.153 kPa
338.3 K, Transpiration method	0.2 kPa
338.5 K, Transpiration method	0.205 kPa
343.4 K, Transpiration method	0.269 kPa
343.6 K, Transpiration method	0.286 kPa

Details	mass density [kg/m3]
[1], 298.15 K, 101.33 kPa, Crystal 3, Pycnometric method	1100

Details	Molar enthalpy of transition or fusion, [2] [kcal/mol]	Triple point temperature, [1] [K]
Crystal 2	1.269	284.6
Crystal 3	0.41	241.4

Source: the NIST ThermoML archive (doi:10.1016/j.jct.2007.08.002)
